Assay results from patent publication US8841463B2, “Cathepsin C inhibitors” (GlaxoSmithKline Intellectual Property Development Limited, priority 2011, dated 2014).
pIC50: −log10 of the molar value. Counter-ions that a name gives are not always drawn.

Molecular target: recombinant human cathepsin C (Homo sapiens, UniProt P53634)
Assay: Recombinant Cathepsin C in vitro assay (cleavage of fluorogenic substrate H-Ser-Tyr-AMC)
Assay type: biochemical
Conditions: average of two experiments; one hour preincubation, pH 5.5, room temperature; read-out: concentration giving 50% cathepsin C inhibition
Protocol: B. Recombinant Cathepsin C In Vitro Assay:
The activity of recombinant human cathepsin C was measured by the cleavage of a fluorogenic substrate, H-Ser-Tyr-AMC. Briefly, 24 pM cathepsin C was incubated with test compound (e.g. inhibitor) in a buffer consisting of 50 mM sodium acetate, 30 mM sodium chloride, 1 mM CHAPS, 1 mM dithiothreitol, 1 mM EDTA, pH 5.5 at room temperature for one hour. After one hour of incubating test compound with cathepsin C, the activity assay was initiated by the addition of an equal volume of 0.010 mM H-Ser-Tyr-AMC in the same buffer. After one hour, the activity assay was stopped by the addition of ⅕ volume of 100 μM E-64. The reaction product was measured on a fluorescence reader set at an excitation wavelength of 360 nm and emission wavelength of 460 nm and equipped with a 400 nm dichroic mirror.

Sequence of recombinant human cathepsin C (P53634 25-463): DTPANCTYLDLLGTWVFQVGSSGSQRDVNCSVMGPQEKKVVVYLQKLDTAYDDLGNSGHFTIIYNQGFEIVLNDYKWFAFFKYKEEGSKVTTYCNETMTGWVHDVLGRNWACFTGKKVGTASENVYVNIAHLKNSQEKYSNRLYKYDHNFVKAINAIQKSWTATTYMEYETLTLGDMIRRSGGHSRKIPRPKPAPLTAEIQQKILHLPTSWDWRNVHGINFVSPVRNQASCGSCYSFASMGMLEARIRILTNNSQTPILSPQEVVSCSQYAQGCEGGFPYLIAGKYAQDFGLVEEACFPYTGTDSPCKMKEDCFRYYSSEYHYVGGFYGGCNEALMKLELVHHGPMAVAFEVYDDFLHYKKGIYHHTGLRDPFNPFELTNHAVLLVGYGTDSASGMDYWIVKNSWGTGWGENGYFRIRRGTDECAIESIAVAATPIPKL

Row | Compound | pIC50
1 | CC(C)C[C@@H](/C=C/C(=O)N1CCc2ccccc21)NC(=O)C1(N)CCOCC1 [Example 2, 4-amino-N-[(1S,2E)-4-(2,3-dihydro-1H-indol-1-yl)-1-(2-methylpropyl)-4-oxo-2-buten-1-yl]tetrahydro-2H-pyran-4-carboxamide hydrochloride] | > 9.00
2 | CC[C@@H](/C=C/C(=O)N1CCc2ccccc21)NC(=O)C1(N)CCOCC1 [Example 1, 4-amino-N-[(1S,2E)-4-(2,3-dihydro-1H-indol-1-yl)-1-ethyl-4-oxo-2-buten-1-yl]tetrahydro-2H-pyran-4-carboxamide hydrochloride] | > 9.00
